Measured values reported in patent US5384309A, “Cyclized peptides and their use as platelet aggregation inhibitors” (Genentech, Inc., priority 1989, dated 1995).
Like-named read-outs stand apart in the source and are kept apart here. Positions of bridges follow the written chain, without caps; N, C: chain ends. Non-standard residues stand in square brackets, D forms with d. Residues, ends and D or L forms follow the SMILES beside them. No end group written: not given here.

Experiments:
[1] = target: T1, purified human platelet GP llbllla receptor (Homo sapiens, UniProt P05106+P08514); assay: biochemical; format: binding; conditions: for IC50: ELISA, fibrinogen-coated plates, solubilized GP llbllla, read-out: IC50, inhibition of fibrinogen binding to the GP llbllla platelet receptor
T1 construct: Platelet GP llbllla was prepared by the method of Fitzgerald, et al; from tissue; host or cells: human platelets
T1 sequence (P08514 32-887 limits assumed): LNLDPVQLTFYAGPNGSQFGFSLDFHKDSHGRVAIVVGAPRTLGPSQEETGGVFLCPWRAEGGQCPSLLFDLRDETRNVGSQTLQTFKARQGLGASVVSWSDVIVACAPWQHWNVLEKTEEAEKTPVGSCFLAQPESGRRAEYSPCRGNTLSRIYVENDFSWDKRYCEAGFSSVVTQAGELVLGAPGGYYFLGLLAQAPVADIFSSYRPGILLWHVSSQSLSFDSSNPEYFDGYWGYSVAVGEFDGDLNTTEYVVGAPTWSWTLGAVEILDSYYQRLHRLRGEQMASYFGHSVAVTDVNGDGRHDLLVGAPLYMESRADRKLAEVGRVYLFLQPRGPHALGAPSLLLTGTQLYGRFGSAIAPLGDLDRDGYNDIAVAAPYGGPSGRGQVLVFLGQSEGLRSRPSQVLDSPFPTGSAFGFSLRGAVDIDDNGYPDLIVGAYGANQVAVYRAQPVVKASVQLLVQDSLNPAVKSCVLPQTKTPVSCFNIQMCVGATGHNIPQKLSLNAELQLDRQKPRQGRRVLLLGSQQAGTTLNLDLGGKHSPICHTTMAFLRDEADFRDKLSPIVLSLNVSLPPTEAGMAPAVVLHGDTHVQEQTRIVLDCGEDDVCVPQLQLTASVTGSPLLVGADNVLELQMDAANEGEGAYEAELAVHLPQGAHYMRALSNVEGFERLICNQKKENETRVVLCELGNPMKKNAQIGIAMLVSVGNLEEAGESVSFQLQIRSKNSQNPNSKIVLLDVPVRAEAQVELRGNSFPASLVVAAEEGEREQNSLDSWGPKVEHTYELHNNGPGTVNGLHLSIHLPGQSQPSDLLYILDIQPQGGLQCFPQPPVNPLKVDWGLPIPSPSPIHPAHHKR
T1 sequence (P08514 891-1039 partner limits assumed): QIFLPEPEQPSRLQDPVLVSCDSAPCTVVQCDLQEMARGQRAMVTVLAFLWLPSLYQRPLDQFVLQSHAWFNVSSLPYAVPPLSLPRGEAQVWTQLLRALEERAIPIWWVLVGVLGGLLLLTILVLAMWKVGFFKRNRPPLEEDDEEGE
T1 sequence (P05106 27-788): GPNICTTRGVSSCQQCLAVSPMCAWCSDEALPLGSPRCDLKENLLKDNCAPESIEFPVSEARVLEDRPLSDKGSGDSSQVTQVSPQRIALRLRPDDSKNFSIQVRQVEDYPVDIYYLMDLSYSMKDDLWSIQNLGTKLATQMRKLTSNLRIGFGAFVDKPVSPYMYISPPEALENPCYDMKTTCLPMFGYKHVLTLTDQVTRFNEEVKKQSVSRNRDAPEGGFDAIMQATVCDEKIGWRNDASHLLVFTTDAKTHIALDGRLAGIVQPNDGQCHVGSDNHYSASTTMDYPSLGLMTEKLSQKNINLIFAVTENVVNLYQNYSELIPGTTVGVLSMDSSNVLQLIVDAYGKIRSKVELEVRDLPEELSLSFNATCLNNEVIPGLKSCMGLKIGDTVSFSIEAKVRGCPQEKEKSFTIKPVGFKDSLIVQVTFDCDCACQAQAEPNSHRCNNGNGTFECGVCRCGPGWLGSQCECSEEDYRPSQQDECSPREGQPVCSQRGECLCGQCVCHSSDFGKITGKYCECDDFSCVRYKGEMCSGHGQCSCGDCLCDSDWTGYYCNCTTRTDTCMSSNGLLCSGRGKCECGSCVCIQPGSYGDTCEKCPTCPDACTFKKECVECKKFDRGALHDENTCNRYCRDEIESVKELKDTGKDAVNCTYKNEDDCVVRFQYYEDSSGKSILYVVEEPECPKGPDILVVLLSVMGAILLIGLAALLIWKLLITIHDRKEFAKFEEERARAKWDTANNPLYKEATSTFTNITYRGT
Experimental: In-vitro biological activity of the compounds of Formula I was monitored using a modified fibrinogen--GP llbllla ELISA based on the method of Nachman and Leung (J. Clin. Invest. (1982) 69, 263-269) which measures the inhibition of fibrinogen binding to purified human platelet GP llbllla receptor. Human fibrinogen was prepared by the method of Lipinska, et al. (J. Lab. Grin. Med. (1974) 84, 509-516). Platelet GP llbllla was prepared by the method of Fitzgerald, et al. (Anal. Blochem. (1985) 151,169-177.
Microtiter plates are coated with fibrinogen (10 ug/ml) and then blocked with TACTS buffer containing 0.5% bovine serum albumin (BSA). (TACTS buffer contains 20 mM Tris. HCl, pH 7.5, 0.02% sodium azide, 2 mM calcium chloride, 0.05% Tween 20, 150 mM sodium chloride.) The plate is washed with phosphate buffered saline (PBS) containing 0.01% Tween 20 and the sample to be determined added, followed by addition of solubilized GP llbllla receptor (40 ug/ml) in TACTS, 0.5% BSA. After incubation, the plate is washed and 1 ug/ml of murine anti-platelet monoclonal antibody AP3 (P. J. Newman et al. Blood (1985) 65, 227-232) is added. After another wash a goat anti-mouse IgG conjugated to horseradish peroxidase is added. A final wash is performed and developing reagent buffer (10 mg o-phenylenediamine dihydrochloride, 0.0212% hydrogen peroxide, 0.22 mM citrate, 50 mM phosphate, pH 5.0) is added and then incubated until color develops. The reaction is stopped with 1N sulfuric acid and the absorbance at 492 nm is recorded.
Microtiter plates are coated with fibrinogen (10 ug/ml) and then blocked with TACTS buffer containing 0.5% BSA. (TACTS buffer contains 20mM Tris. HCl, pH 7.5, 0.02% sodium azide, 2 mM calcium chloride, 0.05% Tween 20, 150 mM sodium chloride.) The plate is washed with phosphate buffered saline containing 0.01% Tween 20 and a dilution of the sample to be determined added, followed by addition of solubilized llbllla receptor (40 ug/ml) in TACTS, 0.5% BSA. After incubation, the plate is washed and murine monoclonal anti-platelet antibody AP3 (1 ug/ml) added. After another wash goat and anti-mouse IgG conjugated to horseradish peroxidase is added. A final wash is performed and developing reagent buffer (10 mg o-phenylenediamine dihydrochloride, 0.0212% hydrogen peroxide, 0.22 mM citrate, 50 mM phosphate, pH 5.0) is added and then incubated until color developed. The reaction is stopped with 1N sulfuric acid and the absorbance at 492 nm is recorded.

[2] = target: human platelet rich plasma (PRP) platelets (Homo sapiens, UniProt P05106+P08514); assay: platelet aggregation inhibition in human platelet rich plasma (ADP induced); format: cell-based; conditions: ADP 8 uM
Sequence of human platelet rich plasma (PRP) platelets (P08514 32-1039): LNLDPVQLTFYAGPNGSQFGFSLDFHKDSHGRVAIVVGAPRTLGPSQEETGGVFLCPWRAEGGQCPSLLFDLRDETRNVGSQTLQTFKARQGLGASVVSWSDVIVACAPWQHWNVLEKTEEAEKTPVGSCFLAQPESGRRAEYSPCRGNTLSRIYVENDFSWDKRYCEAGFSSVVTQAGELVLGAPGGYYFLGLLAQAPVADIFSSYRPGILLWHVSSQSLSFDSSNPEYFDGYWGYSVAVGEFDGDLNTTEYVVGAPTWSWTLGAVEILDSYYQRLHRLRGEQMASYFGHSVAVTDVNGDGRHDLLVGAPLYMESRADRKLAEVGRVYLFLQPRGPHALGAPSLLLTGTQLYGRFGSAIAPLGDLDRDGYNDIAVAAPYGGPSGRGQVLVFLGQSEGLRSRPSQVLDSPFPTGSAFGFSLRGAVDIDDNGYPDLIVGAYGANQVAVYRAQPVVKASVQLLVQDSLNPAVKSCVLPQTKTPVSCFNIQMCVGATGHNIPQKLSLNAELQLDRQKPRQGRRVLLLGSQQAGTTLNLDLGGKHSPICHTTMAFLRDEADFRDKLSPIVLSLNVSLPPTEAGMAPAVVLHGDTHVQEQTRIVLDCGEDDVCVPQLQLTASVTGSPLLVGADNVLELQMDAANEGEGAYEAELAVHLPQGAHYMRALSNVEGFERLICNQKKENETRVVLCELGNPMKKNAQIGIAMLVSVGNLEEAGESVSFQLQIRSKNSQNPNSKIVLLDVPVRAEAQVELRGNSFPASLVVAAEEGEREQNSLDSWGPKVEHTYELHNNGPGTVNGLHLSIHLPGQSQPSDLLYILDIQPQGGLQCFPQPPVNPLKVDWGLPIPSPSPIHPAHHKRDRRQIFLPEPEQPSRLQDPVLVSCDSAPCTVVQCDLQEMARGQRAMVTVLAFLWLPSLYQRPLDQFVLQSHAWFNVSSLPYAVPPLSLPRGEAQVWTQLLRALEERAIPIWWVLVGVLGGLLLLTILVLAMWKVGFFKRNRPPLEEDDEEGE
Sequence of human platelet rich plasma (PRP) platelets (P05106 27-788): as the sequence (P05106 27-788) above
Experimental: (§1) In addition to the GP llbllla ELISA assay, platelet aggregation assays may be performed in human platelet rich plasma (PRP). Fifty milliliters of whole human blood (9 parts) is drawn on 3.6% sodium citrate (1 part) from a donor who has not taken aspirin or related medications for at least two weeks. The blood is centrifuged at 160 ×g for 10 min at 220° C. and then allowed to stand for 5 min after which the PRP is decanted. Platelet poor plasma (PPP) is isolated from the remaining blood after centrifugation at 2000×g for 25 min. The platelet count of the PRP was diluted to ca. 300000 per microliter with PPP.
A 225 uL aliquot of PRP plus 25 uL of either a dilution of the test sample or a control (PBS) is incubated for 5 min in a Chrono-log Whole Blood Aggregometer at 25° C. An aggregatng agent (collagen, 1 ug/ml; U46619, 100 ng/ml; or ADP, 8 uM) is added and the platelet aggregation recorded.
as §1, with “Fifty” for “In addition to the GP llbllla ELISA assay, platelet aggregation assays may be performed in human platelet rich plasma (PRP). Fifty”, “160×g” for “160 ×g”, “22°” for “220°”
A 225 uL aliquot of PRP plus 25 uL of either a dilution of the test sample or a control (PBS) is incubated for 5 min in a Chrono-log Whole Blood Aggregometer at 25° C. Adenosine diphosphate (ADP, 8 uM) is added and the platelet aggregation recorded.

[3] = GP IIbIIIa receptor assay for inhibition of fibrinogen binding, smaller ratio = more active

| Ratio of IC50 of test compound to IC50 of Gly-Arg-Gly-Asp-Val [1] | Molecule | IC50 [2] [µM] | Ratio of IC50 of test compound to IC50 of Gly-Arg-Gly-Asp-Val [1, 3] | further results |
| --- | --- | --- | --- | --- |
| 0.14 | N=C(N)NCCC[C@@H]1NC(=O)[C@@H](CC(N)=O)NC(=O)CSC[C@@H](C(=O)O)NC(=O)[C@H](CC(=O)O)NC(=O)CNC1=O [Ex. 5, cyclo-S-acetyl-(dAsn)-Arg--Gly--Asp--Cys--OH] ({CH2CO}-[dN]RGDC-OH; thioether N-5) | – | – | – |
| 0.46 | C[C@@H](O)[C@@H]1NC(=O)CSC[C@@H](C(=O)O)NC(=O)[C@H](CC(=O)O)NC(=O)CNC(=O)[C@H](CCCNC(=N)N)NC1=O [Ex. 6, cyclo-S-acetyl-Thr--Arg--Gly--Asp--Cys--OH] ({CH2CO}-TRGDC-OH; thioether N-5) | – | – | – |
| 0.5 | C[C@@H]1NC(=O)CSC[C@@H](C(=O)O)NC(=O)[C@H](CC(=O)O)NC(=O)CNC(=O)[C@H](CCCNC(=N)N)NC1=O [Ex. 8, cyclo-S-acetyl-Ala--Arg--Gly--Asp--Cys--OH] ({CH2CO}-ARGDC-OH; thioether N-5) | – | – | – |
| 0.38 | N=C(N)NCCC[C@@H]1NC(=O)[C@H](Cc2ccc(O)cc2)NC(=O)CSC[C@@H](C(=O)O)NC(=O)[C@H](CC(=O)O)NC(=O)CNC1=O [Ex. 10, cyclo-S-acetyl-Tyr--Arg--Gly--Asp--Cys--OH] ({CH2CO}-YRGDC-OH; thioether N-5) | – | – | – |
| 0.46 | N=C(N)NCCC[C@@H]1NC(=O)[C@@H]2CCCN2C(=O)CSC[C@@H](C(=O)O)NC(=O)[C@H](CC(=O)O)NC(=O)CNC1=O [Ex. 12, cyclo-S-acetyl-Pro--Arg--Gly--Asp--Cys--OH] ({CH2CO}-PRGDC-OH; thioether N-5) | – | – | – |

The next lines start with the molecule.

| Molecule | Ratio of IC50 of test compound to IC50 of Gly-Arg-Gly-Asp-Val [1] | IC50 [2] [µM] | Ratio of IC50 of test compound to IC50 of Gly-Arg-Gly-Asp-Val [1, 3] | further results |
| --- | --- | --- | --- | --- |
| N=C(N)NCCC[C@H](N)C(=O)NCC(=O)N[C@@H](CC(=O)O)C(=O)N[C@@H](CO)C(=O)O [Arg--Gly--Asp--Ser, reference compound] | > 20 | – | – | – |
| CC(C)[C@H](NC(=O)[C@H](CC(=O)O)NC(=O)CNC(=O)[C@@H](N)CCCNC(=N)N)C(=O)O [Arg--Gly--Asp--Val, reference compound] (H-RGDV-OH) | 3 | – | – | – |
| N=C(N)NCCC[C@@H]1NC(=O)CNC(=O)CSC[C@@H](C(=O)O)NC(=O)[C@H](CC(=O)O)NC(=O)CNC1=O [Ex. 2, cyclo-S-acetyl-Gly-Arg-Gly-Asp-Cys-OH] ({CH2CO}-GRGDC-OH; thioether N-5) | – | 8 | 0.14 | – |
| C[C@H](O)[C@H]1NC(=O)CSC[C@@H](C(=O)O)NC(=O)[C@H](CC(=O)O)NC(=O)CNC(=O)[C@H](CCCNC(=N)N)NC1=O [Ex. 7, Cyclo-S-acetyl-(d-Thr)-Arg-Gly-Asp-Cys-OH] ({CH2CO}-[dT]RGDC-OH; thioether N-5) | – | – | 0.07 | – |
| C[C@H](O)[C@H]1NC(=O)CSC[C@@H](C(=O)O)NC(=O)[C@H](CC(=O)O)NC(=O)CNC(=O)[C@H](CCCN=C(N)N)NC1=O [Ex. 7, Cyclo-S-acetyl-(d-Thr)-Arg-Gly-Asp-Cys-OH] ({CH2CO}-[dT]RGDC-OH; thioether N-5) | – | 0.8 | – | – |
| C[C@H]1NC(=O)CSC[C@@H](C(=O)O)NC(=O)[C@H](CC(=O)O)NC(=O)CNC(=O)[C@H](CCCNC(=N)N)NC1=O [Ex. 9, cyclo-S-acetyl-(dAla)-Arg--Gly--Asp--Cys--OH] ({CH2CO}-[dA]RGDC-OH; thioether N-5) | – | 3 | 0.13 | – |
| N=C(N)NCCC[C@@H]1NC(=O)[C@H]2CCCN2C(=O)CSC[C@@H](C(=O)O)NC(=O)[C@H](CC(=O)O)NC(=O)CNC1=O [Ex. 13, cyclo-S-acetyl-(dPro)-Arg--Gly--Asp--Cys--OH] ({CH2CO}-[dP]RGDC-OH; thioether N-5) | – | 2 | 0.05 | – |
| N=C(N)NCCC[C@@H]1NC(=O)CNC(=O)C(c2ccccc2)SC[C@@H](C(=O)O)NC(=O)[C@H](CC(=O)O)NC(=O)CNC1=O (some centres unmarked) [Ex. 18, cyclo-S-Phenylacetyl-Gly--Arg--Gly--Asp--Cys--OH] | – | 3 | – | – |
| N=C(N)NCCC[C@@H]1NC(=O)CNC(=O)CSC[C@@H](C(=O)O)NC(=O)[C@H](CC(=O)O)NC(=O)CNC1=O [cyclo-S-acetyl-Gly-Arg-Gly-Asp-Cys-OH] ({CH2CO}-GRGDC-OH; thioether N-5) | – | 8.5 | – | IC50 [1]: 0.005 µM |
| GRGDV [Gly--Arg--Gly--Asp--Val, reference compound] [listing 1 of 2 here] | – | – | – | IC50 [1]: 0.02 to 0.04 µM |
| GRGDV [Gly--Arg--Gly--Asp--Val, reference compound] [listing 2 of 2 here] | – | – | 1 | – |
